Reference: ChEMBL document CHEMBL1149799, “Bioactive peroxides as potential therapeutic agents” (Eur J Med Chem, 2008)
Values after ≈ are worked out from the molar mass of the structure shown.

Legend:
KB = assay: Cytotoxicity against human KB cells; type: functional, cell-based; conditions: Homo sapiens; for EC50: KB, read-out: ED50 (the source's name)
A549 = assay: Cytotoxicity against human A549 cells; type: functional, cell-based; conditions: Homo sapiens, A549; for EC50: read-out: ED50 (the source's name)
P388 = assay: Cytotoxicity against mouse P388 cells; type: functional, cell-based; conditions: Mus musculus, P388; for EC50: read-out: ED50 (the source's name)
HT-29 = assay: Cytotoxicity against human HT29 cells; type: functional, cell-based; conditions: Homo sapiens, HT-29; for EC50: read-out: ED50 (the source's name)
[1] = Cytotoxicity against mouse Ehrlich Ascites carcinoma by trypan blue exclusion assay; type: functional
L1210 = assay: Cytotoxicity against mouse L1210 cells; type: functional, cell-based; conditions: for IC50: Mus musculus, L1210
LoVo = assay: Cytotoxicity against human LoVo cells; type: functional
DU-145 = assay: Cytotoxicity against human DU145 cells; type: functional, cell-based; conditions: Homo sapiens, DU-145
[2] = Cytotoxicity against human MEL28 cells; conditions: SK-MEL-28

With `C[C@H](C/C=C/C(C)(C)OO)[C@H]1CC[C@H]2[C@@H]3CC(=O)C4=CC(=O)CC[C@]4(C)[C@H]3CC[C@]12C` the EC50 (KB) was 1.15 µg/mL (≈ 2.68 µM), the EC50 (A549) was 0.88 µg/mL (≈ 2.05 µM) and the EC50 (P388) was 0.53 µg/mL (≈ 1.24 µM). For the same compound, the EC50 (HT-29) was 1.48 µg/mL (≈ 3.45 µM).

With `CC(=O)[C@@H]1CC[C@@H](C)[C@@H]2CC[C@]3(C)OO[C@@]12[C@H](OC=O)O3` the IC50 [1] was 91 µM and the IC80 [1] was 156 µM.

In the case of `CC(CCCC/C=C/CC/C=C\c1ccccc1)C[C@]1(C)C[C@@](C)(CC(=O)O)OO1` (stereo partly specified) [PLAKINIC ACID C], the IC50 (L1210) is reported as 0.017 µg/mL (≈ 0.041 µM), the MIC (KB) is reported as 0.01 µg/mL (≈ 0.0241 µM) and the MIC (LoVo) is reported as 0.1 µg/mL (≈ 0.241 µM).

With `CCCCCCCC/C=C/C(=O)O[C@@H]1[C@@H](C)[C@@]2(O)[C@H]([C@@H]3C(C)(C)[C@]13OC(C)=O)[C@@H](OO)C(CO)=C[C@]1(O)C(=O)C(C)=C[C@@H]21` [OSTODIN] the EC50 (KB) was no more than 4000 µg/mL and the EC50 (P388) was no more than 4000 µg/mL.

Compound `C=CCCC/C=C/C=C\CCCCCCCC[C@@H]1CC[C@@H]([C@@H]2CC[C@@H](CC(=O)[O-])OO2)O1.[Na+]` has an IC50 (A549) of 0.1 µg/mL, an IC50 (P388) of 0.01 µg/mL and an IC50 (HT-29) of 0.1 µg/mL. For the same compound, the IC50 (DU-145) was 0.1 µg/mL.

Work on `C/C=C/C=C/CCCCCCCCCCC[C@]1(OC)C=C[C@H](CC(=O)OC)OO1` yielded an EC50 (P388) greater than 10 µg/mL.

For `COC(=O)C[C@@]1(C)C[C@@](C)(CC(C)CC/C=C/CC/C=C/c2ccccc2)OO1` (stereo partly specified), the IC50 (L1210) was 0.003 µg/mL (≈ 0.00749 µM), the MIC (KB) was 0.1 µg/mL (≈ 0.25 µM) and the MIC (LoVo) was 0.1 µg/mL (≈ 0.25 µM).

`CC/C=C/C(CC)CC(C)CC1(CC)C=C(CC)C(CC(=O)OC)OO1` (stereo unspecified) showed an IC50 (P388) of 0.055 µg/mL (≈ 0.15 µM).

Work on `C=C1CC[C@H](OO)C(=C)CCC2=C(C(C)C)C(=O)C[C@]2(C)CC1=O` yielded an EC50 (A549) of 0.56 µg/mL (≈ 1.68 µM), an EC50 (P388) of 0.052 µg/mL (≈ 0.156 µM) and an EC50 (HT-29) of 0.31 µg/mL (≈ 0.932 µM).

Work on `C[C@@H]1CCC2[C@@H](C)[C@H](O[C@@H]3O[C@H]4O[C@@]5(C)CC[C@@H]6[C@@H](C)CCC([C@@H]3C)[C@]46OO5)O[C@@H]3O[C@]4(C)CC[C@@H]1[C@@]23OO4` (stereo partly specified) yielded an IC50 [1] of 1.4 µM and an IC80 [1] of 2.4 µM.

With `C=C(CCC1=C(C)CCCC1(C)C)C(O)CC[C@@]1(C)CC[C@H]([C@H](C)C(=O)O)OO1` (stereo partly specified) [TASNEMOXIDE B] the IC50 (A549) was greater than 1 µg/mL, the IC50 (P388) was greater than 1 µg/mL and the IC50 (HT-29) was greater than 1 µg/mL.

With `CO[C@H]1O[C@@H]2O[C@@]3(C)CC[C@H]4[C@H](C)CC[C@@H]([C@H]1C)[C@@]24OO3` the IC80 [1] was greater than 125 µM.

Work on `C=C1C(=O)O[C@H]2C[C@](C)(O)CCC[C@](C)(OO)C/C=C/[C@@]3(C)O[C@H]3C[C@@H]12` yielded an IC50 (P388) of 0.1 µg/mL (≈ 0.273 µM).

`C=CCC/C=C\C=C/CCCCCCCC[C@@H]1CC[C@@H]([C@@H]2CC[C@@H](CC(=O)[O-])OO2)O1.[Na+]` gave an IC50 (A549) of 0.1 µg/mL, an IC50 (P388) of 0.01 µg/mL and an IC50 (HT-29) of 0.1 µg/mL. The IC50 (DU-145) was 0.1 µg/mL and the IC50 [2] was 0.1 µg/mL.

`C=C1CCCC(C)(C)C1(O)CC[C@@]1(C)CC[C@@H]([C@H](C)C(=O)OC)OO1` (stereo partly specified) [AIKUPIKOXIDE B] gave an IC50 (A549) greater than 1 µg/mL, an IC50 (P388) greater than 1 µg/mL and an IC50 (HT-29) greater than 1 µg/mL.

`C/C1=C\CC[C@]2(C)O[C@H]([C@@H]3OC(=O)[C@]4(OO)CCO[C@@H]2C[C@H]34)[C@H](C)CCC1` [PLANAXOOL] showed an IC100 (L1210) of 2.4 µg/mL.

`C=CCCC/C=C/C=C\CCCCCCCC[C@H]1CC[C@H]([C@@H]2CC[C@@H](CC(=O)[O-])OO2)O1.[Na+]` [STOLONOXIDE D] gave an IC50 (A549) of 0.1 µg/mL, an IC50 (P388) of 0.5 µg/mL and an IC50 (HT-29) of 0.05 µg/mL. For the same compound, the IC50 (DU-145) was 0.1 µg/mL and the IC50 [2] was 0.1 µg/mL.

`C=CCC/C=C\C=C/CCCCCCCC[C@H]1CC[C@@H]([C@@H]2CC[C@@H](CC(=O)O)OO2)O1` [STOLONOXIDE A] showed an IC50 (A549) of 0.1 µg/mL (≈ 0.23 µM), an IC50 (P388) of 0.01 µg/mL (≈ 0.023 µM) and an IC50 (HT-29) of 0.1 µg/mL (≈ 0.23 µM). For the same compound, the IC50 (DU-145) was 0.1 µg/mL (≈ 0.23 µM) and the IC50 [2] was 0.1 µg/mL (≈ 0.23 µM).

With `CC(=O)[C@@H]1CC[C@@H](C)[C@@H]2CC[C@]3(C)OO[C@@]12C(=O)O3` the IC50 [1] was greater than 175 µM and the IC80 [1] was greater than 175 µM.

With `COC(=O)[C@@H](C)[C@@H]1CC[C@](C)(CCC(=O)C(C)(C)CCCC(C)=O)OO1` [DIACARPEROXIDE B] the IC50 (A549) was greater than 1 µg/mL, the IC50 (P388) was greater than 1 µg/mL and the IC50 (HT-29) was greater than 1 µg/mL.

Work on `C/C=C/C=C/CCCCCCCCCCCCC[C@@]1(OC)C=C[C@@H](CC(=O)OC)OO1` [XESTIN B] yielded an IC50 (P388) of 3 µg/mL (≈ 6.87 µM).

`C=CC(CC[C@@H](C)[C@H]1CC[C@H]2[C@@H]3CC(=O)C4=CC(=O)CC[C@]4(C)[C@H]3CC[C@]12C)(OO)C(C)C` (stereo partly specified) showed an EC50 (KB) of 4 µg/mL (≈ 8.76 µM), an EC50 (A549) of 2.5 µg/mL (≈ 5.47 µM) and an EC50 (P388) of 0.8 µg/mL (≈ 1.75 µM). For the same compound, the EC50 (HT-29) was 1.4 µg/mL (≈ 3.07 µM).

With `COC(=O)C[C@@]1(C)C[C@@](C)(CC(C)CCCC/C=C/CC/C=C\c2ccccc2)OO1` (stereo partly specified) the IC50 (L1210) was 0.29 µg/mL (≈ 0.677 µM), the MIC (KB) was 0.1 µg/mL (≈ 0.233 µM) and the MIC (LoVo) was 1 µg/mL (≈ 2.33 µM).

With `C=CC(CC[C@@H](C)[C@H]1CC[C@H]2[C@@H]3C[C@@H](O)C4=CC(=O)CC[C@]4(C)[C@H]3CC[C@]12C)(OO)C(C)C` (stereo partly specified) the EC50 (KB) was 1.8 µg/mL (≈ 3.92 µM), the EC50 (A549) was 0.64 µg/mL (≈ 1.4 µM) and the EC50 (P388) was 0.4 µg/mL (≈ 0.872 µM). For the same compound, the EC50 (HT-29) was 0.43 µg/mL (≈ 0.937 µM).
